Entries after “also recorded” stand apart in the source; their conditions may differ.

One data set deals with obese Zucker rats. The note with it: free systemically administered tesa; ref [43]; cited from earlier work.
A short description of a further data set: Rectal body temperature. The format is in vivo. The note with it: db/db mice, 2.5 μM/kg/day, 8 days. On the procedure:
(§1) All of the experiments were performed according to the animal ethical laws of the state Saxony, Germany, and were approved by the local animal ethics review board (Landesdirektion Sachsen, Leipzig, Germany). Female db/db mice 12–15 weeks of age were purchased from Taconic (Denmark) and housed in groups of 5 in temperature- and humidity-controlled facilities in a 12 h:12 h light–dark cycle and had free access to tap water and food (regular chow, Sniff, Soest, Germany). Three out of seven groups served as controls (N = 15, see Table 1). The 5 db/db mice were untreated and 10 db/db mice were vehicle treated either orally or intraperitoneally (i.p.). […]
(§2) All of the mice were monitored for 9 days during the treatment period. Body weight, food intake, and water uptake were recorded daily and body composition (lean body mass and whole body fat mass) was recorded at the beginning, middle, and end of the study in the conscious mice using an EchoMRI system (Echo Medical Systems, Houston, TX, USA). At the beginning and end of the treatment period, the HbA1c levels were determined from 5 μl of whole venous blood samples using an automated chemical analyzer at the Institute of Laboratory Medicine and Clinical Chemistry and beta-ketone using an automated glucose monitor (FreeStyle Precision H, Abbott GmbH, Ludwigshafen, Germany). […]

The next data set has as its system 3T3-L1 preadipocytes. The data set is described as follows: AdipoRed adipogenesis assay, 3T3-L1. The note with it: 24 h; tesa 10/25/100 μM, tesa-NPY 100 μM; AdipoRed fluorescence, DMSO = 100%; n = 3 in quadruplicate. The class given is cell-based, murine. On the procedure: 3T3-L1 or SGBS cells were seeded into 96-well plates and grown to complete confluency (set as day 0). On day 2 of confluence, the 3T3-L1 cells were differentiated by DMEM High Glucose Medium supplemented with 10% (v/v) not-heat inactivated FCS, 0.5 mM IBMX, 167 nM human insulin, and 1 μM dexamethasone (differentiation medium). On day 4, the medium was replaced by insulin medium (DMEM High Glucose Medium, 10% not-heat inactivated FCS, and 167 nM human insulin). On day 6, the medium was changed to standard culture medium and changed every other day until full differentiation was achieved (on day 8). The SGBS cells were differentiated as previously described. […] On day 4, the medium was replaced by 3FC medium (DMEM High Glucose Medium and Hams F12 (1:1 (v/v))) without FCS and supplemented with 0.01 mg human apo-transferrin, 20 nM human insulin, triiodo-L-thyronine, and 100 nM hydrocortisone. The medium was changed every second day until full differentiation was achieved (day 10). […]
(A, B) Cells were differentiated and stimulated according to the protocol depicted for 3T3-L1 (A) and for SGBS (B). […] (E,F) Expression of adipocyte-enriched genes in 3T3-L1 (E) or SGBS (F) adipocytes analyzed by qPCR. […] Statistical significances refer to DMSO-treated cells and were determined by one-way analysis of variance (ANOVA) followed by Dunnett's multiple comparison test, *≤0.05, **p ≤ 0.01, ***p ≤ 0.001.

The conditions of data set [1]: volunteers, ref [111]; cited from earlier work. The source says: Thus, the observed anti-diabetic effects are assumed to result from adipocyte-specific PPARγ-mediate ...
A short description of data set [2]: Body weight change in db/db mice. The class given is in vivo. The settings on record: 2.5 μM/kg/day, 8 days, tesa oral, peptides i.p., n = 5. On the procedure:
as §1, §2

Another data set is described as follows: Ketone bodies. The format is in vivo. The settings on record: db/db mice, 2.5 μM/kg/day, 8 days; n = 5. On the procedure: as §1, §2
A further data set in a line: Plasma free fatty acids. The format is in vivo. The settings on record: db/db mice, 2.5 μM/kg/day, 8 days; n = 5. On the procedure:
as §1, with “(i.p.). One additional group (n = 5) of lean C57BL/6NTac mice was used as a metabolically healthy control group.” for “(i.p.).”
(§3) Serum insulin (mouse insulin ELISA, Mercodia, Uppsala, Sweden), adiponectin (mouse adiponectin ELISA, AdipoGen, San Diego, CA, USA), leptin (mouse leptin ELISA, Crystal Chem, Downers Grove, IL, USA), and Mcp-1 (mouse/rat CCL2/JE/Mcp-1 Quantikine ELISA, R&D Systems, Minneapolis, MN, USA) levels were analyzed via ELISA according to the manufacturer's instructions. Serum concentrations of TG, FFA, and cholesterol were measured by an automatic chemical analyzer at the Institute of Laboratory Medicine and Clinical Chemistry.

The next data set in a line: Serum leptin. The class given is in vivo. The note with it: db/db mice, 2.5 μmol/kg/day, 8 days; ELISA; n = 5. On the procedure: as §1, with “(i.p.). One additional group (n = 5) of lean C57BL/6NTac mice was used as a metabolically healthy control group.” for “(i.p.).”
as §3
In general terms: An ELISA detects its analyte on a solid surface through an enzyme-linked reagent.

Data set [3] deals with subcutaneous and epigonadal adipose tissue. The data set is described as follows: Adipose tissue histology and adipocyte size. The class given is in vivo. The settings on record: db/db mice, 2.5 μmol/kg/day, 8 days; H&E, epigonadal and subcutaneous AT. On the procedure:
All of the experiments were performed according to the animal ethical laws of the state Saxony, Germany, and were approved by the local animal ethics review board (Landesdirektion Sachsen, Leipzig, Germany). Female db/db mice 12–15 weeks of age were purchased from Taconic (Denmark) and housed in groups of 5 in temperature- and humidity-controlled facilities in a 12 h:12 h light–dark cycle and had free access to tap water and food (regular chow, Sniff, Soest, Germany). Three out of seven groups served as controls (N = 15, see Table 1). The 5 db/db mice were untreated and 10 db/db mice were vehicle treated either orally or intraperitoneally (i.p.). One additional group (n = 5) of lean C57BL/6NTac mice was used as a metabolically healthy control group. Groups 1 to 5 were treated daily with 2.5 μmol/kg body weight tesa, peptides or vehicle (1% (v/v) DMSO in PBS) either by gavage or intraperitoneal injection for 8 days according to Table 1. The control mice were gavaged with an equal volume of vehicle.

The next data set has as its system db/db mice. The settings on record: ref Cha et al. [93]; cited from earlier work. An excerpt:
To strengthen this finding, we examined the expression of the PPARγ-responsive genes adiponectin, Fabp4, and Cidec [[71], [72], [73], [74],[88], [89], [90], [91]]. Adiponectin may mediate the beneficial effects of PPARγ agonists for the treatment of diabetes, as it is an insulin-sensitizing adipokine that affects hepatic glucose output and decre ...

Data set [4] deals with LDL receptor-deficient mice. The settings on record: ref [94]; cited from earlier work.

For `CCO[C@@H](Cc1ccc(OCCc2ccc(OS(C)(=O)=O)cc2)cc1)C(=O)O` [tesa, tesaglitazar], the “insulin sensitivity in obese Zucker rats” value in the data set with obese Zucker rats is recorded as “restore insulin sensitivity in obese Zucker rats”. Also, in “Rectal body temperature”, the “body temperature, in words” value is “normalized”. For the same molecule, in the data set with 3T3-L1 preadipocytes, the “adipogenesis (triglyceride content), 3T3-L1” value was “enhanced adipogenesis in both cell lines”. For the same molecule, the “absorption after oral dosing” value in data set [1] was “rapidly and completely absorbed after oral dosing”. Also, the “body weight change, in words” value in [2] is given as “did not change significantly; also recorded: can prevent this weight loss”. In “Ketone bodies”, the ketone bodies entry was “normalization of the plasma concentration”. For the same molecule, in the data set “Plasma free fatty acids”, the “free fatty acids (FFA)” value is “normalization”. Besides, the serum leptin concentration result in “Serum leptin” is “no significant effect”. Further, in [3], the adipocyte size entry is given as “trend toward smaller adipocyte size”. The “adiponectin mRNA expression and plasma levels” value in the data set on db/db mice is “induces increased adiponectin mRNA expression and plasma levels in db/db mice”. The “atherosclerosis in LDL receptor-deficient mice” value in data set [4] is “reduces atherosclerosis in LDL receptor-deficient mice”.

The values above are taken from publication PMC6931124, “NPY1R-targeted peptide-mediated delivery of a dual PPARα/γ agonist to adipocytes enhances adipogenesis and prevents diabetes progression” (Molecular Metabolism, 2019).
